Laboratory results from paper PMC10482975 (Nature Communications, 2023).

Tests used:
[1] = target: T1, M5 mAChR WT (Homo sapiens, UniProt P08912); test: [3H]-NMS radioligand dissociation binding, M5 mAChR WT
T1 construct: expressed in transfected cells
T1 sequence (P08912 1-532): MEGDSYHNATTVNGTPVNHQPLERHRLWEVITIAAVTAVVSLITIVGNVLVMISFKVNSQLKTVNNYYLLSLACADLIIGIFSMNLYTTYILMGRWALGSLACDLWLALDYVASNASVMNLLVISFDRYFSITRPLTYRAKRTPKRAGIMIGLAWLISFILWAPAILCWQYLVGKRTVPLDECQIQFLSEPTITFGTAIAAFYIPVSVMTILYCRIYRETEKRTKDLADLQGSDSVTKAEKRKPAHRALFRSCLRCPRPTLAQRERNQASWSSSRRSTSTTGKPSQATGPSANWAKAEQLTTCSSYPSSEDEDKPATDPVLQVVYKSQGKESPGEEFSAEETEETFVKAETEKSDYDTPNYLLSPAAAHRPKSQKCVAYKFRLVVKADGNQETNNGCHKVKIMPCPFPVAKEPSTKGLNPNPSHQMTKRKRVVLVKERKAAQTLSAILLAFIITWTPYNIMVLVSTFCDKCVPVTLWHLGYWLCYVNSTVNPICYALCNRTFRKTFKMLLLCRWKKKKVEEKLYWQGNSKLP
Procedure: (§1) Flp-In Chinese hamster ovary (CHO) (Thermo Fisher Scientific) cells stably expressing mAChR WTs or mutant constructs were cultured in Dulbecco’s modified Eagle’s medium (DMEM, Invitrogen) containing 5% foetal bovine serum (FBS; ThermoTrace) and […] of hygromycin (Roche) in a humidified incubator (37 °C, 5% CO2). Upon reaching confluence, media was removed, cells were washed with phosphate buffered saline (PBS) and harvested from tissue culture flasks using versene (PBS with 0.2 g EDTA). Cells were then pelleted through centrifugation at 350 × g for three minutes followed by resuspension in DMEM + 5% FBS. Cells were then either plated for an assay or reseeded into a tissue culture flask.

[2] = target: T2, M2 mAChR WT (Homo sapiens, UniProt P08172); test: [3H]-NMS radioligand dissociation binding, M2 mAChR WT
T2 construct: expressed in transfected cells
T2 sequence (P08172 1-466): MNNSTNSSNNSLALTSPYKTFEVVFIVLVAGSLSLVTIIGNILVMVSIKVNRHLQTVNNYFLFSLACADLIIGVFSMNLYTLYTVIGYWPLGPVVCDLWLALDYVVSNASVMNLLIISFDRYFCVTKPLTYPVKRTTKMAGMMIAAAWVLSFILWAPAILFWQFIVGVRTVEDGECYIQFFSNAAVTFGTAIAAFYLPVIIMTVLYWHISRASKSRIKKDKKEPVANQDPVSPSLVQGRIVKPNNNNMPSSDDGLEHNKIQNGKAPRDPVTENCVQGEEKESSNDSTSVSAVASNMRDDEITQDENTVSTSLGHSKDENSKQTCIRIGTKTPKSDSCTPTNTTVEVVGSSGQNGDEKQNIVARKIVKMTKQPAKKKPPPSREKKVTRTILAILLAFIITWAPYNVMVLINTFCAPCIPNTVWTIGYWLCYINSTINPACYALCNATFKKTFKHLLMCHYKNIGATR
Procedure: as §1

[3] = target: T3, M3 mAChR WT (Homo sapiens, UniProt P20309); test: [3H]-NMS radioligand dissociation binding, M3 mAChR WT
T3 construct: expressed in transfected cells
Procedure: as §1

[4] = target: T4, M4 mAChR WT (Homo sapiens, UniProt P08173); test: [3H]-NMS radioligand dissociation binding, M4 mAChR WT; settings: for [3H]-NMS binding remaining (0 min = 100), MEAN: M4 mAChR
T4 construct: expressed in transfected cells
T4 sequence (P08173 1-479): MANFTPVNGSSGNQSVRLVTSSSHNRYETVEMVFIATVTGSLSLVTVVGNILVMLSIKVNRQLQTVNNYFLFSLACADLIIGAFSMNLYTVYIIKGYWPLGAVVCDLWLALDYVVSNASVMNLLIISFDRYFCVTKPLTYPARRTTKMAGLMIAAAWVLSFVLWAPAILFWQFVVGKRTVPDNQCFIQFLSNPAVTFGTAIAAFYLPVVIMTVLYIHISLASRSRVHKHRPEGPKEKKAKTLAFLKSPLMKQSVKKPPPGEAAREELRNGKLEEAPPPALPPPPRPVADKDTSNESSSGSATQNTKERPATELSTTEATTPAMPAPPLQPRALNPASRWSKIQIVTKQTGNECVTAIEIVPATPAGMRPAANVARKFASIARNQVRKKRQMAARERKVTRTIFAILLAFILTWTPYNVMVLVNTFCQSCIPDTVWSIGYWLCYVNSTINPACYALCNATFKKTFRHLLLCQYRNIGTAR
Procedure: as §1

T3 sequence (P20309 whole entry): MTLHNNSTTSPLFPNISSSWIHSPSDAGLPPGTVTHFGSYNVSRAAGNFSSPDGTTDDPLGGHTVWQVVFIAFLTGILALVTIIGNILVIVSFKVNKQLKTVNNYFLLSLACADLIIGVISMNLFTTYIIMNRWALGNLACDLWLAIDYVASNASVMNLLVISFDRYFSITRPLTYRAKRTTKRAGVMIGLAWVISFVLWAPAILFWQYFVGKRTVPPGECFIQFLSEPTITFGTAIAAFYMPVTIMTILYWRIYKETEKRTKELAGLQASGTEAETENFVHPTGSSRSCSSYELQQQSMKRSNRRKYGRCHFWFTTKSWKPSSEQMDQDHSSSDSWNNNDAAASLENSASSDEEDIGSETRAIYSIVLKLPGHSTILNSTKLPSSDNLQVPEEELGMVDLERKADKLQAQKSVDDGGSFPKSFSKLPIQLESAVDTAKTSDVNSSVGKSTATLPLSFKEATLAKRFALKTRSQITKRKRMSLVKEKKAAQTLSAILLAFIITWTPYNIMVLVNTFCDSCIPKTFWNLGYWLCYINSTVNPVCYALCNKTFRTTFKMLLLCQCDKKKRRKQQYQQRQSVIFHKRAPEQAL

## CCCCCCOc1nsnc1C1=CCCN(C)C1 [xanomeline]
[1]
  allosteric effect on [3H]-NMS dissociation (in words): modest
[1]; 10uM Atr + 10 μM Xano, 10 min
  [3H]-NMS binding remaining (0 min = 100), MEAN: 90.3151
[1]; 10uM Atr + 10 μM Xano, 15 min
  [3H]-NMS binding remaining (0 min = 100), MEAN: 91.7238
[1]; 10uM Atr + 10 μM Xano, 30 min
  [3H]-NMS binding remaining (0 min = 100), MEAN: 85.9775
[1]; 10uM Atr + 10 μM Xano, 90 min
  [3H]-NMS binding remaining (0 min = 100), MEAN: 67.8458
[1]; 10uM Atr + 10 μM Xano, 120 min
  [3H]-NMS binding remaining (0 min = 100), MEAN: 51.752
[1]; 10uM Atr + 10 μM Xano, 210 min
  [3H]-NMS binding remaining (0 min = 100), MEAN: 35.86
[1]; 10uM Atr + 30 μM Xano, 10 min
  [3H]-NMS binding remaining (0 min = 100), MEAN: 92.3387
[1]; 10uM Atr + 30 μM Xano, 15 min
  [3H]-NMS binding remaining (0 min = 100), MEAN: 85.7238
[1]; 10uM Atr + 30 μM Xano, 30 min
  [3H]-NMS binding remaining (0 min = 100), MEAN: 100.331
[1]; 10uM Atr + 30 μM Xano, 90 min
  [3H]-NMS binding remaining (0 min = 100), MEAN: 61.0136
[1]; 10uM Atr + 30 μM Xano, 120 min
  [3H]-NMS binding remaining (0 min = 100), MEAN: 51.9105
[1]; 10uM Atr + 30 μM Xano, 210 min
  [3H]-NMS binding remaining (0 min = 100), MEAN: 31.039
[1]; 10uM Atr + 100uM Xano, 10 min
  [3H]-NMS binding remaining (0 min = 100), MEAN: 94.3264
[1]; 10uM Atr + 100uM Xano, 15 min
  [3H]-NMS binding remaining (0 min = 100), MEAN: 90.317
[1]; 10uM Atr + 100uM Xano, 30 min
  [3H]-NMS binding remaining (0 min = 100), MEAN: 106.159
[1]; 10uM Atr + 100uM Xano, 90 min
  [3H]-NMS binding remaining (0 min = 100), MEAN: 76.4682
[1]; 10uM Atr + 100uM Xano, 120 min
  [3H]-NMS binding remaining (0 min = 100), MEAN: 67.0445
[1]; 10uM Atr + 100uM Xano, 210 min
  [3H]-NMS binding remaining (0 min = 100), MEAN: 42.1563
[2]
  allosteric effect on [3H]-NMS dissociation (in words): more pronounced
[3]
  IC50: 182 µM
[3]; M3 mAChR
  allosteric effect on [3H]-NMS dissociation (in words): modest
[3]; M3 mAChR, 10uM Atr + 10 μM Xano, 10 min
  [3H]-NMS binding remaining (0 min = 100), MEAN: 102.824
[3]; M3 mAChR, 10uM Atr + 10 μM Xano, 15 min
  [3H]-NMS binding remaining (0 min = 100), MEAN: 94.4472
[3]; M3 mAChR, 10uM Atr + 10 μM Xano, 30 min
  [3H]-NMS binding remaining (0 min = 100), MEAN: 84.3079
[3]; M3 mAChR, 10uM Atr + 10 μM Xano, 90 min
  [3H]-NMS binding remaining (0 min = 100), MEAN: 53.078
[3]; M3 mAChR, 10uM Atr + 10 μM Xano, 120 min
  [3H]-NMS binding remaining (0 min = 100), MEAN: 40.5004
[3]; M3 mAChR, 10uM Atr + 10 μM Xano, 210 min
  [3H]-NMS binding remaining (0 min = 100), MEAN: 20.6349
[3]; M3 mAChR, 10uM Atr + 30 μM Xano, 10 min
  [3H]-NMS binding remaining (0 min = 100), MEAN: 103.273
[3]; M3 mAChR, 10uM Atr + 30 μM Xano, 15 min
  [3H]-NMS binding remaining (0 min = 100), MEAN: 95.5713
[3]; M3 mAChR, 10uM Atr + 30 μM Xano, 30 min
  [3H]-NMS binding remaining (0 min = 100), MEAN: 87.9383
[3]; M3 mAChR, 10uM Atr + 30 μM Xano, 90 min
  [3H]-NMS binding remaining (0 min = 100), MEAN: 53.4947
[3]; M3 mAChR, 10uM Atr + 30 μM Xano, 120 min
  [3H]-NMS binding remaining (0 min = 100), MEAN: 41.606
[3]; M3 mAChR, 10uM Atr + 30 μM Xano, 210 min
  [3H]-NMS binding remaining (0 min = 100), MEAN: 24.8398
[3]; M3 mAChR, 10uM Atr + 100uM Xano, 10 min
  [3H]-NMS binding remaining (0 min = 100), MEAN: 100.762
[3]; M3 mAChR, 10uM Atr + 100uM Xano, 15 min
  [3H]-NMS binding remaining (0 min = 100), MEAN: 94.0238
[3]; M3 mAChR, 10uM Atr + 100uM Xano, 30 min
  [3H]-NMS binding remaining (0 min = 100), MEAN: 90.7523
[3]; M3 mAChR, 10uM Atr + 100uM Xano, 90 min
  [3H]-NMS binding remaining (0 min = 100), MEAN: 62.8848
[3]; M3 mAChR, 10uM Atr + 100uM Xano, 120 min
  [3H]-NMS binding remaining (0 min = 100), MEAN: 45.8052
[3]; M3 mAChR, 10uM Atr + 100uM Xano, 210 min
  [3H]-NMS binding remaining (0 min = 100), MEAN: 29.7551
[4]; 10uM Atr + 10 μM Xano, 30 min
  [3H]-NMS binding remaining (0 min = 100), MEAN: 87.1248
[4]; 10uM Atr + 10 μM Xano, 90 min
  [3H]-NMS binding remaining (0 min = 100), MEAN: 63.7927
[4]; 10uM Atr + 10 μM Xano, 180 min
  [3H]-NMS binding remaining (0 min = 100), MEAN: 32.9493
[4]; 10uM Atr + 10 μM Xano, 300 min
  [3H]-NMS binding remaining (0 min = 100), MEAN: 16.1247
[4]; 10uM Atr + 30 μM Xano, 30 min
  [3H]-NMS binding remaining (0 min = 100), MEAN: 96.6093
[4]; 10uM Atr + 30 μM Xano, 90 min
  [3H]-NMS binding remaining (0 min = 100), MEAN: 68.5782
[4]; 10uM Atr + 30 μM Xano, 180 min
  [3H]-NMS binding remaining (0 min = 100), MEAN: 42.1853
[4]; 10uM Atr + 30 μM Xano, 300 min
  [3H]-NMS binding remaining (0 min = 100), MEAN: 23.6351
[4]; 10uM Atr + 100uM Xano, 30 min
  [3H]-NMS binding remaining (0 min = 100), MEAN: 97.9496
[4]; 10uM Atr + 100uM Xano, 60 min
  [3H]-NMS binding remaining (0 min = 100), MEAN: 79.6399
[4]; 10uM Atr + 100uM Xano, 180 min
  [3H]-NMS binding remaining (0 min = 100), MEAN: 54.7449
[4]; 10uM Atr + 100uM Xano, 300 min
  [3H]-NMS binding remaining (0 min = 100), MEAN: 34.2485
[4]; wild-type M4 mAChR, increasing concentrations of xanomeline, saturating concentration of iperoxo
  effect on [3H]-NMS dissociation (in words): progressively slowed
